# Data as given in patent EP0908457B1, “3-(1,2-benzisothiazol- and isoxazol-5-Y1)-2,4(1H,3H)-pyrimidinedione or thione and 3-(1,2-benzisothiazol- and isoxazol-5-y1)-4(3H)-pyrimidinone or thione herbicidal agents” (BASF AKTIENGESELLSCHAFT, priority 1997, dated 1999).
# Legend:
# Assay type in all cases: in vivo
# [1] = tested on: Monochoria vaginalis, Presl.; test: Preemergence weed control under flooded paddy conditions, MOOVA (Monochoria); details: preemergence, flooded paddy, rated three to four weeks after treatment; on herbicidal effect rating, MOOVA: meaning of each grade not given here
# [2] = tested on: Echinochloa oryzoides (Ard.) Fritsch.; test: Preemergence weed control under flooded paddy conditions, ECHORC (Watergrass (Calif.)); details: preemergence, flooded paddy, rated three to four weeks after treatment; on herbicidal effect rating, ECHORC: meaning of each grade not given here
# [3] = tested on: Sagittaria pygmaea, L.; test: Preemergence weed control under flooded paddy conditions, SAGPY (Arrowhead (Pygmaea)); details: preemergence, flooded paddy, rated three to four weeks after treatment; on herbicidal effect rating, SAGPY: meaning of each grade not given here
# [4] = tested on: Cyperus iria; test: Preemergence weed control under flooded paddy conditions, CYPIR (Rice Flatsedge); details: preemergence, flooded paddy, rated three to four weeks after treatment; on herbicidal effect rating, CYPIR: meaning of each grade not given here
# [5] = tested on: Cyperus serotinus, Rottb.; test: Preemergence weed control under flooded paddy conditions, CYPSE (Flatsedge); details: preemergence, rated three to four weeks after treatment; on herbicidal effect rating, CYPSE: meaning of each grade not given here
compound,measurement,setting,value
"Cn1c(C(F)(F)F)cc(=O)n(-c2ccc3snc(C(C)(C)C(=O)OCc4ccccc4)c3c2)c1=O [Example 396, 1,2-Benzisothiazole-3-acetic acid, 5-[3,6-dihydro-3-methyl-2,6-dioxo-4-(trifluoromethyl)-1(2H)-pyrimidinyl]-alpha,alpha-dimethyl-, benzyl ester]","herbicidal effect rating, MOOVA",[1]; Rate 0.0320 kg/ha,9.0
same,"herbicidal effect rating, MOOVA",[1]; Rate 0.0620 kg/ha,9.0
same,"herbicidal effect rating, MOOVA",[1]; Rate 0.1250 kg/ha,9.0
same,"herbicidal effect rating, MOOVA",[1]; Rate 0.2500 kg/ha,9.0
same,"herbicidal effect rating, ECHORC",[2]; Rate 0.0320 kg/ha,9.0
same,"herbicidal effect rating, ECHORC",[2]; Rate 0.0620 kg/ha,9.0
same,"herbicidal effect rating, ECHORC",[2]; Rate 0.1250 kg/ha,9.0
same,"herbicidal effect rating, ECHORC",[2]; Rate 0.2500 kg/ha,9.0
same,"herbicidal effect rating, SAGPY",[3]; Rate 0.0320 kg/ha,7.0
same,"herbicidal effect rating, SAGPY",[3]; Rate 0.0620 kg/ha,7.0
same,"herbicidal effect rating, SAGPY",[3]; Rate 0.1250 kg/ha,8.0
same,"herbicidal effect rating, SAGPY",[3]; Rate 0.2500 kg/ha,8.0
same,"herbicidal effect rating, CYPIR",[4]; Rate 0.0320 kg/ha,7.0
same,"herbicidal effect rating, CYPIR",[4]; Rate 0.0620 kg/ha,8.0
same,"herbicidal effect rating, CYPIR",[4]; Rate 0.1250 kg/ha,9.0
same,"herbicidal effect rating, CYPIR",[4]; Rate 0.2500 kg/ha,9.0
same,"herbicidal effect rating, CYPSE",[5]; Rate 0.0320 kg/ha,0.0
same,"herbicidal effect rating, CYPSE",[5]; Rate 0.0620 kg/ha,0.0
same,"herbicidal effect rating, CYPSE",[5]; Rate 0.1250 kg/ha,0.0
same,"herbicidal effect rating, CYPSE",[5]; Rate 0.2500 kg/ha,6.0
"Cn1c(C(F)(F)F)cc(=O)n(-c2ccc3snc(COC(=O)C(C)(C)C)c3c2)c1=O [Example 498, 2,4(1H,3H)-Pyrimidinedione, 3-[3-(hydroxymethyl)-1,2-benzisothiazol-5-yl]-1-methyl-6-(trifluoromethyl)-, pivalate (ester)]",MOOVA herbicidal rating,[1]; 0.0320 kg/ha,4.0
same,MOOVA herbicidal rating,[1]; 0.0620 kg/ha,5.0
same,MOOVA herbicidal rating,[1]; 0.1250 kg/ha,7.0
same,MOOVA herbicidal rating,[1]; 0.2500 kg/ha,8.0
same,ECHORC herbicidal rating,[2]; 0.0320 kg/ha,0.0
same,ECHORC herbicidal rating,[2]; 0.0620 kg/ha,3.0
same,ECHORC herbicidal rating,[2]; 0.1250 kg/ha,5.0
same,ECHORC herbicidal rating,[2]; 0.2500 kg/ha,6.0
same,SAGPY herbicidal rating,[3]; 0.0320 kg/ha,0.0
same,SAGPY herbicidal rating,[3]; 0.0620 kg/ha,0.0
same,SAGPY herbicidal rating,[3]; 0.1250 kg/ha,3.0
same,SAGPY herbicidal rating,[3]; 0.2500 kg/ha,6.0
same,CYPIR herbicidal rating,[4]; 0.0320 kg/ha,2.0
same,CYPIR herbicidal rating,[4]; 0.0620 kg/ha,5.0
same,CYPIR herbicidal rating,[4]; 0.1250 kg/ha,9.0
same,CYPIR herbicidal rating,[4]; 0.2500 kg/ha,9.0
same,CYPSE herbicidal rating,[5]; 0.1250 kg/ha,0.0
"C#CCC(c1nsc2ccc(-n3c(=O)cc(C(F)(F)F)n(C)c3=O)cc12)S(C)(=O)=O (stereo not drawn) [Example 603, 2,4(1H,3H)-Pyrimidinedione, 1-methyl-3-{3-[1-(methylsulfonyl)-3-butynyl]-1,2-benzisothiazol-5-yl}-6-(trifluoromethyl)-]","herbicidal effect rating, MOOVA",[1]; Rate 0.0320 kg/ha,7.0
same,"herbicidal effect rating, MOOVA",[1]; Rate 0.0620 kg/ha,7.0
same,"herbicidal effect rating, MOOVA",[1]; Rate 0.1250 kg/ha,9.0
same,"herbicidal effect rating, MOOVA",[1]; Rate 0.2500 kg/ha,9.0
same,"herbicidal effect rating, ECHORC",[2]; Rate 0.0320 kg/ha,0.0
same,"herbicidal effect rating, ECHORC",[2]; Rate 0.0620 kg/ha,4.0
same,"herbicidal effect rating, ECHORC",[2]; Rate 0.1250 kg/ha,6.0
same,"herbicidal effect rating, ECHORC",[2]; Rate 0.2500 kg/ha,8.0
same,"herbicidal effect rating, SAGPY",[3]; Rate 0.0320 kg/ha,0.0
same,"herbicidal effect rating, SAGPY",[3]; Rate 0.0620 kg/ha,0.0
same,"herbicidal effect rating, SAGPY",[3]; Rate 0.1250 kg/ha,2.0
same,"herbicidal effect rating, SAGPY",[3]; Rate 0.2500 kg/ha,4.0
same,"herbicidal effect rating, CYPIR",[4]; Rate 0.0320 kg/ha,5.0
same,"herbicidal effect rating, CYPIR",[4]; Rate 0.1250 kg/ha,6.0
same,"herbicidal effect rating, CYPIR",[4]; Rate 0.2500 kg/ha,7.0
same,"herbicidal effect rating, CYPSE",[5]; Rate 0.0320 kg/ha,0.0
same,"herbicidal effect rating, CYPSE",[5]; Rate 0.1250 kg/ha,8.0
same,"herbicidal effect rating, CYPSE",[5]; Rate 0.2500 kg/ha,9.0
Cc1ccc(OCC(=O)n2cnc3ccccc32)c(-c2nsc3ccc(-n4c(=O)cc(C(F)(F)F)n(C)c4=O)cc23)c1 [Example 62],"herbicidal effect rating, MOOVA",[1]; 0.0313 kg/ha,9.0
same,"herbicidal effect rating, MOOVA",[1]; 0.0625 kg/ha,9.0
same,"herbicidal effect rating, MOOVA",[1]; 0.1250 kg/ha,9.0
same,"herbicidal effect rating, MOOVA",[1]; 0.2500 kg/ha,9.0
same,"herbicidal effect rating, ECHORC",[2]; 0.0313 kg/ha,6.0
same,"herbicidal effect rating, ECHORC",[2]; 0.0625 kg/ha,9.0
same,"herbicidal effect rating, ECHORC",[2]; 0.1250 kg/ha,9.0
same,"herbicidal effect rating, ECHORC",[2]; 0.2500 kg/ha,9.0
same,"herbicidal effect rating, SAGPY",[3]; 0.0313 kg/ha,0.0
same,"herbicidal effect rating, SAGPY",[3]; 0.0625 kg/ha,1.0
same,"herbicidal effect rating, SAGPY",[3]; 0.1250 kg/ha,4.0
same,"herbicidal effect rating, SAGPY",[3]; 0.2500 kg/ha,7.0
same,"herbicidal effect rating, CYPIR",[4]; 0.0313 kg/ha,4.0
same,"herbicidal effect rating, CYPIR",[4]; 0.0625 kg/ha,6.0
same,"herbicidal effect rating, CYPIR",[4]; 0.1250 kg/ha,9.0
same,"herbicidal effect rating, CYPIR",[4]; 0.2500 kg/ha,9.0
same,"herbicidal effect rating, CYPSE",[5]; 0.0313 kg/ha,0.0
same,"herbicidal effect rating, CYPSE",[5]; 0.0625 kg/ha,1.0
same,"herbicidal effect rating, CYPSE",[5]; 0.1250 kg/ha,2.0
same,"herbicidal effect rating, CYPSE",[5]; 0.2500 kg/ha,9.0
